This note sets out measurements from patent US8476253B2, “Amide derivative” (Daiichi Sankyo Company, Limited, priority 2009, dated 2013).

What is called Ki is the dissociation constant of the complex between target and ligand, obtained from inhibition or displacement.

For one assay, the target named is T1, human M3 receptor (Homo sapiens, UniProt P20309).
T1 construct: expressed in transfected cells; host or cells: CHO cells
Put plainly: Test for binding to human M3 receptor. The protocol: A solution of cryopreserved CHO cells expressing human M3 receptor was diluted with a buffer (50 mM tris-hydrochloride containing 0.5 mM of EDTA, pH 7.4) to obtain 5.0×10^5 of cells/mL and used as a crude membrane sample.
[N-methyl-^3H]-(−)-Scopolamine methyl chloride (GE Healthcare Japan Corporation) was diluted with 50 mM of tris-hydrochloride containing 0.5 mM of EDTA (pH 7.4), a test substance and 250 μL of the crude membrane sample solution were added to 250 μL of the mixture, and the mixture was incubated at room temperature for 60 minutes. […] The glass fiber filter paper was pretreated with a 0.1% polyethylenimine solution for 4 hours or longer to minimize non-specific binding. The filter collecting membrane components was transferred to a small-size plastic vial containing 3 mL of Pico-Fluor, and the radioactivity was measured with a liquid scintillation counter (Tri-Carb 2900TR or 2300TR; Perkin Elmer).
The effect of binding to the M3 receptor was calculated as the affinity (Ki) of the test substance for the M3 receptor from a 50% binding dose (IC50) and the affinity (Kd) of [N-methyl-^3H]-(−)-Scopolamine methyl chloride for the M3 receptor.

A further assay relates to muscarine M3 receptor. Put plainly: Effect of suppressing methacholine-induced airway contraction (in vivo, intratracheal administration). More on the design: species or system guinea pig. The following applies: guinea pigs, intratracheal administration 60 minutes before 30 μg/kg i.v. methacholine; AUC of increase in airway pressure over 10 minutes. As to the method:
Using healthy guinea pigs (body weight, 350 to 550 g; Hartley male guinea pigs), the effect of suppressing airway contraction induced by methacholine, which is a muscarine receptor agonist, was examined by a modified method of Konzett-Roessler (Naunyn-Schmiedebergs Arch. Exp. Pathol. Pharmakol. 195, 71 [1940]) using airway pressure as an indicator.
(§1) A tracheal cannula and a venous cannula were attached to a guinea pig anesthetized with pentobarbital (50 mg/mL of solution, 0.40 to 0.50 mL/body, subcutaneous administration). An arterial cannula filled with heparin-containing physiological saline (100 U/mL) was further attached, and blood pressure and heart rate were monitored via an amplifier and an instantaneous heart rate meter. Subsequently, gallamine (20 mg/body, intravenous administration) was administered to terminate spontaneous breathing, and then 10 mL/kg of positive pressure breathing (Ugo-Basile Biological Research Apparatus, Cat. No. 7025) was rapidly performed at 60 times/min. The airway pressure during artificial breathing was detected with a pressure transducer (TP-200T or TP-400T; Nihon Kohden Corporation) attached to a side branch of the tracheal cannula, amplified (AP-601G; Nihon Kohden Corporation), and recorded in a recorder. After the airway pressure, blood pressure, and heart rate were stabilized, 30 μg/kg of methacholine was intravenously administered from the venous cannula to induce airway contraction, and the airway pressure was measured for the following 10 minutes.
A test substance was dissolved in 5% glucose solution, and a 0.5 mL/kg solution was administered intratracheally with an intratracheal administration apparatus (model 1A-1B; Penn-Century, Inc.) 60 minutes before stimulation with methacholine.
The AUC of increase in the airway pressure over 10 minutes after administration of methacholine was measured as the intensity of methacholine-induced airway contraction and calculated as an ID50 value from the inhibition rate based on the value of the control group (a 5% glucose solution intratracheal administration group).

The target in the next assay is T2, substance P receptor (Cavia porcellus, UniProt P30547).
T2 construct: A preparation of a crude lung membrane sample was prepared; from tissue; host or cells: guinea-pig lung (crude membrane sample)
T2 sequence (P30547 whole entry): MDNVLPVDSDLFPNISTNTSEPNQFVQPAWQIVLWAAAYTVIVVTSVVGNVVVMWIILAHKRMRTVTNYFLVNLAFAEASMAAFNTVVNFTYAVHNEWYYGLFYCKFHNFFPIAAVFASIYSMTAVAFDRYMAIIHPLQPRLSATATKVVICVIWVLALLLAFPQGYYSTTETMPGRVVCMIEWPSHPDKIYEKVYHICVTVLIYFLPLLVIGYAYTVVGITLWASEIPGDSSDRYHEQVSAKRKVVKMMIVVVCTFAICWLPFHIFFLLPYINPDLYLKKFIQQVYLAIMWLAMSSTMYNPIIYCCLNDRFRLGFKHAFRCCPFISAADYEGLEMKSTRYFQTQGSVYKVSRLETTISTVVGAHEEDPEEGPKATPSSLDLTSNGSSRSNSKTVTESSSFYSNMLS
Put plainly: Test for binding to guinea-pig substance P receptor (crude lung membrane sample). The following applies: crude guinea-pig lung membrane sample, [3H]substance P; Ki from IC50 and Kd; read-out: Ki. As to the method: A preparation of a crude lung membrane sample was prepared, and a test for binding of a test substance to the sample was performed according to the method described in EP0336230A2.
The binding effect of the test substance to a substance P receptor was calculated as an affinity (Ki) of the test substance for the substance P receptor from a 50% binding concentration (IC50) and an affinity (Kd) of [^3H]substance P for the substance P receptor.

In the next assay the target is T3, human NK2 receptor (Homo sapiens, UniProt P21452).
T3 construct: expressed in transfected cells; host or cells: COS cells
T3 sequence (P21452 1-398): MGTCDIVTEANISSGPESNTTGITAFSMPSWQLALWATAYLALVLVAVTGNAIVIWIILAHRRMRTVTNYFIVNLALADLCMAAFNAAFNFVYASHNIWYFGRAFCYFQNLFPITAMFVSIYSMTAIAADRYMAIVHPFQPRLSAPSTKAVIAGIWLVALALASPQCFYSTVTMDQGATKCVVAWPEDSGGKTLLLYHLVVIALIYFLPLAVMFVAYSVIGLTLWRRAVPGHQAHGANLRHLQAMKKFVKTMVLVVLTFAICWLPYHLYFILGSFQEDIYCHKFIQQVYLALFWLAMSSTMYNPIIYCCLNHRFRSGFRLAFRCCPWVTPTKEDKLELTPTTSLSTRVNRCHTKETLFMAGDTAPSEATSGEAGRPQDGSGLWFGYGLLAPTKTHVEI
Put plainly: Test for binding to human NK2 receptor. As to the method: A solution of cryopreserved COS cells expressing human NK2 receptor was diluted with a buffer (50 mM tris-hydrochloride containing 0.04% of bovine serum albumin [BSA], pH 7.4) to obtain a concentration of 5.0×10^5 cells/mL and used as a crude membrane sample.
[^3H]SR 48968 (GE Healthcare Japan Corporation) was diluted with a mixture of 50 mM of tris-hydrochloride (pH 7.4), 6 mM of manganese chloride tetrahydrate, 800 μg/mL of BSA, 8 μg/mL of chymostatin, 8 μg/mL of leupeptin, 80 μg/mL of bacitracin, and 20 μg/mL of phosphoramidon. […] After the reaction, the membrane components were collected on a GF/B glass fiber filter paper (Whatman; Biomedical Research and Development Laboratories, Inc.) with an automated filtration system (Brandel; Biomedical Research and Development Laboratories, Inc.). The glass fiber filter paper was pretreated with a 0.1% polyethylenimine solution for 4 hours or longer to minimize non-specific binding. The filter collecting the membrane components was transferred to a small-size plastic vial containing 3 mL of Pico-Fluor, and the radioactivity was measured with a liquid scintillation counter (Tri-Carb 2900TR or 2300TR; Perkin Elmer).
The effect of binding to the NK2 receptor was calculated as the affinity (Ki) of the test substance for the NK2 receptor from a 50% binding dose (IC50) and the affinity (Kd) of [^3H]SR 48968 for the NK2 receptor.

The next assay has as its target T4, neurokinin NK1 receptor (Cavia porcellus, UniProt P30547).
T4 construct: Using healthy guinea pigs (body weight, 350 to 550 g; Hartley male guinea pigs); from tissue; host or cells: live anaesthetised Hartley male guinea pigs (airway, in vivo)
Put plainly: Effect of suppressing substance P-induced airway contraction (in vivo, intratracheal administration). More on the design: species or system guinea pig. The following applies: guinea pig; guinea pigs, intratracheal administration 60 minutes before 20 μg/kg i.v. SP; AUC of increase in airway pressure over 10 minutes; read-out: ID50 (the source's name). As to the method: Using healthy guinea pigs (body weight, 350 to 550 g; Hartley male guinea pigs), the effect of suppressing airway contraction induced by substance P (SP), which is an NK1 receptor agonist, was examined by a modified method of Konzett-Roessler (Naunyn-Schmiedebergs Arch. Exp. Pathol. Pharmakol. 195, 71 [1940]) using airway pressure as an indicator.
as §1, with “mg/mL” for “mg/mL of”, “20” for “30”, “SP” for “methacholine”
The test substance was dissolved in a 5% glucose solution, a 0.5 mL/kg solution was intratracheally administered with an intratracheal administration apparatus (model 1A-1B; Penn-Century, Inc.) 60 minutes before stimulation with SP.
The AUC of increase in the airway pressure over 10 minutes after administration of SP was determined as the intensity of SP-induced airway contraction and calculated as an ID50 value from the inhibition rate based on the value of the control group (5% glucose solution intratracheal administration group).

Where a name gives a salt, the structure may show the parent alone. Read-outs that look alike come from different tables or passages of the source.

T1 sequence (P20309 whole entry): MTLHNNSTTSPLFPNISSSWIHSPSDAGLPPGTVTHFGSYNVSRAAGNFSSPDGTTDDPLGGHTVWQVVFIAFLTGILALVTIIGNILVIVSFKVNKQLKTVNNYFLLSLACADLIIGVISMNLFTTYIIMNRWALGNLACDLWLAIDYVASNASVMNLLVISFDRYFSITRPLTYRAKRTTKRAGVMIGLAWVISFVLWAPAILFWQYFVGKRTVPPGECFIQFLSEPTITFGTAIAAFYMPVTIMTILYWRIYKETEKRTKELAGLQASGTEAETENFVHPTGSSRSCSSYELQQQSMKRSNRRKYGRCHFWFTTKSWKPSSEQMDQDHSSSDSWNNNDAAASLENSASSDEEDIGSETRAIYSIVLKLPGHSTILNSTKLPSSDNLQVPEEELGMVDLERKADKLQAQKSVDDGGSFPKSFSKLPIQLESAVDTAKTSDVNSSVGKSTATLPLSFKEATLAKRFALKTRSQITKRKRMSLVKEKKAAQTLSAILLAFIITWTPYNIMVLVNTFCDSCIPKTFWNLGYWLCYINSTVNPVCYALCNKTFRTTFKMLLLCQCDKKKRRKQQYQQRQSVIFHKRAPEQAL
T4 sequence (P30547 whole entry): as the sequence (P30547 whole entry) above

For `CN(CCN1CCC(OC(=O)Nc2ccccc2-c2ccccc2)CC1)C(=O)CCCCCNc1ccc(C(=O)N(C)CCCN(C)C(=O)CO[C@H]2Cc3ccccc3C23CCN(CC[C@@]2(c4ccc(F)cc4)CN(C(=O)c4cc(C(F)(F)F)cc(C(F)(F)F)c4)CO2)CC3)s1` [Example 4, 1-(2-{[6-({5-[{3-[({[(2S)-1′-{2-[(5R)-3-[3,5-Bis(trifluoromethyl)benzoyl]-5-(4-fluorophenyl)-1,3-oxazolidin-5-yl]ethyl}-2,3-dihydrospiro[indene-1,4′-piperidin]-2-yl]oxy}acetyl)(methyl)amino]propyl}(methyl)carbamoyl]-2-thienyl}amino)hexanoyl](methyl)amino}ethyl)piperidin-4-yl biphenyl-2-ylcarbamate], the Ki on human M3 receptor (CHO cells expressing human M3 receptor, [N-methyl-3H]-(-)-Scopolamine methyl chloride 0.5 nM, Ki from IC50 and Kd, read-out: Ki) is 2.1 nM; on substance P receptor, 1.8 nM; on human NK2 receptor (COS cells expressing human NK2 receptor, [3H]SR 48968 1 nM, Ki from IC50 and Kd, read-out: Ki), 0.62 nM. Also, in the assay on muscarine M3 receptor, the ID50 came out at 0.0252 mg/kg.
Consider `CN(CCN1CCC(OC(=O)Nc2ccccc2-c2ccccc2)CC1)C(=O)CCCCCNc1ccc(C(=O)N(C)CCCN(C)C(=O)CO[C@H]2Cc3ccccc3C23CCN(CC[C@@]2(c4ccc(F)cc4)CN(C(=O)c4cc(C(F)(F)F)cc(C(F)(F)F)c4)CO2)CC3)c(Cl)c1` [Example 85, 1-(2-{[6-({4-[{3-[({[(2S)-1′-{2-[(5R)-3-[3,5-Bis(trifluoromethyl)benzoyl]-5-(4-fluorophenyl)-1,3-oxazolidin-5-yl]ethyl}-2,3-dihydrospiro[indene-1,4′-piperidin]-2-yl]oxy}acetyl)(methyl)amino]propyl}(methyl)carbamoyl]-3-chlorophenyl}amino)hexanoyl](methyl)amino}ethyl)piperidin-4-yl biphenyl-2-ylcarbamate trihydrochloride], for which the figures for the Ki at human M3 receptor, at substance P receptor and on human NK2 receptor were 1.9 nM, 2.2 nM and 1 nM, respectively. Further, the ED50 at neurokinin NK1 receptor amounted to 0.0373 mg/kg. Besides, the ID50 with muscarine M3 receptor was 0.0327 mg/kg.
